Data from ChEMBL document CHEMBL5247574, “Recent Progress on Bile Acid Receptor Modulators for Treatment of Metabolic Diseases” (J Med Chem, 2016).
One block for each compound: values may come before it.

How the values were obtained:
[1] = biological target: T1, G-protein coupled bile acid receptor 1 (Homo sapiens, UniProt Q8TDU6); experiment: Agonist activity at TGR5 in human T-lymphocyte cells assessed as increase in cAMP production; type: cell-based
T1 sequence (Q8TDU6 whole entry): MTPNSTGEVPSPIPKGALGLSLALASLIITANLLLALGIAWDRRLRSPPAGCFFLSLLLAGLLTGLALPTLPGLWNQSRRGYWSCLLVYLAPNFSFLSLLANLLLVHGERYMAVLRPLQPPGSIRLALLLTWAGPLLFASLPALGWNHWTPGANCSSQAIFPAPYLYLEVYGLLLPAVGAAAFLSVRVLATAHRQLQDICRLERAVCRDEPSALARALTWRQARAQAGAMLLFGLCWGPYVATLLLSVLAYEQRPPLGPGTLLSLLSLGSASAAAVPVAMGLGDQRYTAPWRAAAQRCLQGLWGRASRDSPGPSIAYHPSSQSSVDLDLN

Bile acid receptor [2] = biological target: T2, Bile acid receptor (Homo sapiens, UniProt Q96RI1); experiment: Antagonist activity at FXR (unknown origin) by HTFR assay
T2 sequence (Q96RI1 whole entry): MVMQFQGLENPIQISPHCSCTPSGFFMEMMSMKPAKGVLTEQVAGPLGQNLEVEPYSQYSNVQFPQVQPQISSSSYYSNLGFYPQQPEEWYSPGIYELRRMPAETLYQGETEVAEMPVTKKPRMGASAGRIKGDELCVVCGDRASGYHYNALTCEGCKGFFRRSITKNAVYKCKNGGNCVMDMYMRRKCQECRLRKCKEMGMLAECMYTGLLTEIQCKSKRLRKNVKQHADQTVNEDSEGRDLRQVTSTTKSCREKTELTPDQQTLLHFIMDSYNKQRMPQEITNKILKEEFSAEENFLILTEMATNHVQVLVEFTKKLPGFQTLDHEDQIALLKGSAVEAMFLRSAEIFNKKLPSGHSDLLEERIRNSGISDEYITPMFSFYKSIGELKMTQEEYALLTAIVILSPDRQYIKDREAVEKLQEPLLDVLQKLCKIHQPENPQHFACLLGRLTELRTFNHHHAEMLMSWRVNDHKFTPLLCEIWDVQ

Bile acid receptor [3] = biological target: T2, Bile acid receptor; experiment: Antagonist activity at FXR in human HepG2 cells; type: cell-based
Bile acid receptor [4] = biological target: T2, Bile acid receptor; experiment: Agonist activity at human FXR expressed in Escherichia coli BL21 (DE3) assessed as effect on europium labeled SRC-1 peptide recruitment by HTRF assay
Bile acid receptor [5] = biological target: T2, Bile acid receptor; experiment: Agonist activity at FXR (unknown origin) by FRET assay
[6] = Permeability of compound by PAMPA assay; type: ADME
Bile acid receptor [7] = biological target: T2, Bile acid receptor; experiment: Agonist activity at GAL4-fused N-terminal GST tagged human FXR LBD expressed in human HEK293 cells by one hybrid reporter assay; type: cell-based
[8] = biological target: T1, G-protein coupled bile acid receptor 1; experiment: Agonist activity at TGR5 in human HEK293 cells incubated for 30 mins; type: cell-based
[9] = Toxicity in DIO mouse assessed as reduction in total cholesterol level at 30 mg/kg per day administered for 4 weeks; type: organism-based; parameters: scale not given: the % may be the effect or the level left; conditions: in vivo, 672 h
[10] = Toxicity in DIO mouse assessed as plasma triglycerides at 30 mg/kg per day administered for 4 weeks; type: organism-based; conditions: in vivo, 672 h
[11] = In vivo agonist activity at TGR5 in streptozotocin-induced diabetic hamster model assessed as reduction in body weight at 20 mg/kg, po bid administered for 2 weeks by oral glucose tolerance test relative to control; type: functional, Cricetulus griseus; parameters: scale not given: the % may be the effect or the level left
[12] = In vivo agonist activity at TGR5 in streptozotocin-induced diabetic hamster model assessed as increase in insulin secretion at 20 mg/kg, po bid administered for 2 weeks by oral glucose tolerance test relative to control; type: functional, Cricetulus griseus
[13] = In vivo agonist activity at TGR5 in streptozotocin-induced diabetic hamster model assessed as increase in oxygen consumption at 20 mg/kg, po bid administered for 2 weeks by oral glucose tolerance test relative to control; type: functional, Cricetulus griseus
[14] = biological target: T3, G-protein coupled bile acid receptor 1 (Homo sapiens) (UniProt Q8TDU6); experiment: Agonist activity at human TGR5 transfected in human NCI-H716 cells assessed as fold increase in GLP-1 secretion; type: cell-based; conditions: filed as agonist
T3 sequence (whole entry): T1 sequence (Q8TDU6 whole entry)

[15] = In vivo agonist activity at TGR5 in streptozotocin-induced diabetic hamster model assessed as decrease in LDL level at 20 mg/kg, po bid administered for 2 weeks by oral glucose tolerance test relative to control; parameters: scale not given: the % may be the effect or the level left; conditions: Cricetulus griseus
[16] = In vivo agonist activity at TGR5 in streptozotocin-induced diabetic hamster model assessed as increase in HDL level at 20 mg/kg, po bid administered for 2 weeks by oral glucose tolerance test relative to control; type: functional, Cricetulus griseus
[17] = In vivo agonist activity at TGR5 in streptozotocin-induced diabetic hamster model assessed as decrease in plasma triglyceride at 20 mg/kg, po bid administered for 2 weeks by oral glucose tolerance test relative to control; type: functional, Cricetulus griseus; parameters: scale not given: the % may be the effect or the level left
[18] = In vivo agonist activity at TGR5 in streptozotocin-induced diabetic hamster model assessed as increase in HDL/LDL ratio at 20 mg/kg, po bid administered for 2 weeks by oral glucose tolerance test relative to control
[19] = In vivo agonist activity at TGR5 in streptozotocin-induced diabetic hamster model assessed as decrease in non-HDL level at 20 mg/kg, po bid administered for 2 weeks by oral glucose tolerance test relative to control; parameters: scale not given: the % may be the effect or the level left; conditions: Cricetulus griseus
[20] = In vivo agonist activity at TGR5 in streptozotocin-induced diabetic hamster model assessed as reduction in glucose excursion at 38 mg/kg, po by oral glucose tolerance test relative to control; type: functional, Cricetulus griseus; parameters: scale not given: the % may be the effect or the level left

EC50 [1]: 7 nM
Structure (SMILES): CS(=O)(=O)c1ccc(CC2CCC(c3c(C(=O)N4CCC(c5ccc(F)cc5)C4)cnn3-c3ccc(F)cc3)CC2)cc1 (stereo unspecified)

IC50 (Bile acid receptor [2]): 10000 nM
IC50 (Bile acid receptor [3]): 12200 nM
Structure (SMILES): O=C(O)c1ccccc1-c1ccc(Cn2ccc(OCc3c(-c4ccccc4Cl)noc3-c3cccs3)n2)cc1

EC50 (Bile acid receptor [4]): < 100 nM
Structure (SMILES): CC(C)c1onc(-c2c(Cl)cccc2Cl)c1COc1ccc2c(ccn2Cc2ccc(-c3nnn[nH]3)cc2)c1

EC50 (Bile acid receptor [5]): < 25 nM
permeability [6]: 46.1%
EC50 (Bile acid receptor [7]): 10 nM
Structure (SMILES): CC(C)n1nc(C(=O)O)cc1[C@H]1C[C@](O)(c2ccc(OCc3c(-c4c(Cl)cccc4Cl)noc3C3CC3)cc2Cl)C1

EC50 [8]: < 100 nM
Structure (SMILES): COc1ccc(Cc2nnc(SCc3c(F)cccc3Cl)n2-c2ccc(F)cc2F)cc1OC

EC50 (Bile acid receptor [7]): 10 nM
Structure (SMILES): O=C(O)c1ccc(C2CC2c2ccc(OCc3c(-c4c(Cl)cccc4Cl)noc3C3CC3)cc2Cl)cc1 (stereo unspecified)
Activity [9]: 70%
Activity [10]: 50%

fold change (FC) [14]: 3.7
Structure (SMILES): CN(C(=O)c1c(-c2ccc(F)cc2)nc2ncccn12)c1ccc(Cl)cc1
Activity [11]: 5.2%
Activity [12]: 80%
Activity [13]: 7.9%
Activity [15]: 14%
Activity [16]: 7%
Activity [17]: 43%
Activity [18]: 24%
Activity [19]: 24%
Activity [20]: 39%
